Assay results as given in US20220142955A1, “METHODS OF TREATING ORGANIC ACIDEMIAS” (HemoShear Therapeutics, Inc., priority 2019, published 2022).
Where two headings read alike, the source gives them in different places.

What was measured:
[1] = tested on: primary hepatocytes of methylmalonic acidemia patients; assay: Propionyl-CoA and methylmalonyl-CoA from various sources in MMA primary hepatocytes (Examples 4, 5); format: cell-based, human; settings: for EC50: Homo sapiens, Hepatocyte
Method: (§1) Primary hepatocytes isolated from livers of methylmalonic acidemia patients are treated with increasing doses of compound 1 (0, 1, 3, 10, 30, 100, 300, 1000 μM) for 30 minutes. […] At the end of the challenge period, media is removed and the cells are lysed with 70% MCCN and 0.1% TFA containing 100 μM of ethymalonyl-CoA as an internal standard and harvested. Cell lysates are processed for HTMS/MS analysis.
as §1, with “compound 5” for “compound 1”, “(0, 0.1, 0.3,” for “(0,”, “30, 100” for “30, 100, 300, 1000”, “30 min.” for “30 minutes.”, “70% MeCN” for “70% MCCN”

[2] = tested on: primary hepatocytes of propionic acidemia patients; assay: Propionyl-CoA from various sources in PA primary hepatocytes (Examples 2, 3); format: cell-based, human; settings: for EC50: Homo sapiens, Hepatocyte, read-out: concentration of propionyl-CoA EC50
Method: Primary hepatocytes isolated from livers of propionic acidemia patients are treated with increasing doses of compound 1 (0, 1, 3, 10, 30, 100, 300, 1000 μM) for 30 min. After 30 min the cells are challenged with the different sources of P-CoA, which may include ^13C-ketoisovaleric acid (KIVA) (1 mM), […] (ILE) (3 mM), ^13C-threonine (THR) (5 mM), ^13C-methionine (MET) (5 mM), ^13C-heptanoate (100 μM), or ^13C-propionate (5 mM) for 60 minutes. At the end of the challenge period, media is removed and the cells are lysed with 70% MeCN and 0.1% TFA containing 100 μM of ethymalonyl-CoA as an internal standard and harvested. Cell lysates are processed for HTMS/MS analysis.
Primary hepatocytes isolated from livers of propionic acidemia patients are treated with increasing doses of compound 5 (0, 0.1, 0.3, 1, 3, 10, 30, 100 μM) for 30 minutes. After 30 minutes the cells are challenged with the different sources of P-CoA, which may include ^13C-KIVA (1 mM), ^13C-isoleucine (3 mM), ^13C-threonine (5 mM), ^13C-methionine (5 mM), ^13C-heptanoate (100 μM), or ^13C-propionate (5 mM) for 60 minutes. At the end of the challenge period, media is removed and the cells are lysed with 70% MeCN and 0.1% TFA containing 100 μM of ethymalonyl-CoA as an internal standard and harvested. Cell lysates are processed for HTMS/MS analysis.

[3] = tested on: primary hepatocytes of propionic acidemia patients; assay: Reduction of 13C-propionyl-CoA and accumulation of compound-CoA ester after 13C-isoleucine challenge (Example 1); format: cell-based; settings: Homo sapiens, Hepatocyte, 13C-labeled isoleucine, compound 0 μM to 1,000 μM
Method: Primary hepatocytes are isolated from explanted livers of propionic acidemia patients and are cultured on day 1 using standard protocols (see: Chapman et al. “Recapitulation of metabolic defects in a model of propionic acidemia using patient-derived primary hepatocytes” Mol. Genet. Metab. 2016, 117(3), 355-362). Approximately 2×10^5 hepatocytes are plated into each well of a collagen-coated 48-well tissue culture plate and pre-conditioned in a custom Modified Corning culture media for Hepatocells (Corning) without low levels of branched chain amino acids for 72 hours. On day 4, hepatocytes are treated with increasing doses of compound (0, 1, 3, 10, 30, 100, 300, 1000 μM) for 30 min. After 30 min the cells are challenged with ^13C-isoleucine (3 mM). At the end of the challenge period, cells are lysed in 100 μL of […] acetonitrile (MeCN) and 0.1% trifluoroacetic acid (TFA) containing 100 μM of ethymalonyl-CoA as an internal standard. Cells are removed from the well by scraping into the lysis buffer. The collected cellular samples are then dispensed into a microfuge tube. The plate wells are washed again with lysis buffer to ensure the remaining cells are dislocated from the well. All remaining collected cells are then moved into the centrifuge tube. The cellular samples are flash frozen in liquid nitrogen and stored at −80° C. To begin processing, the frozen cellular lysates are thawed on ice and vortexed. The samples are centrifuged at 20,000 g for 10 min at 4° C. and the total volume of supernatant is transferred to a no-bind 96-well plate on ice. The samples are dried under vacuum for about 2 hours and then resuspended in 150 μL of water in each well. Total volumes of samples are filtered through a prepared Durapore filter plate into a no-bind 96-well plate. The filtered samples are stored at −80° C. for HTMS/MS analysis.

[4] = tested on: primary hepatocytes of propionic acidemia patients; assay: Propionyl-carnitine (C3) in PA primary hepatocytes (Example 6); format: cell-based, human; settings: for EC50: Homo sapiens, Hepatocyte, read-out: concentration of propionyl-carnitine EC50
Method: Primary hepatocytes isolated from livers of propionic acidemia patients are treated with increasing doses of compound 1 (0, 1, 3, 10, 30, 100, 300, 1000 μM) for 30 min. After 30 min the cells are challenged with ^13C-KIVA (1 mM) and ^13C-isoleucine (3 mM) for 60 minutes. At the end of the challenge period, media is removed and the cells are washed with ice cold PBS. Cells are lysed with 70% MeCN containing 4 nM of hexanoyl-carnitine as an internal standard (lysis buffer), harvested and processed for HTMS/MS analysis.

[5] = tested on: primary hepatocytes of propionic acidemia patients; assay: Reduction of propionyl-CoA with compounds 8 and 9 (Example 9); format: cell-based, human; settings: PA hepatocytes; 13C-isoleucine (3 mM)
Method: Primary hepatocytes isolated from livers of propionic acidemia patients are treated with increasing doses of compound 1 (0, 0.1, 0.3, 1, 3, 10, 30, 100 μM) for 30 minutes. After 30 minutes, the cells are challenged with ^13C-isoleucine (3 mM) for 60 minutes. At the end of the challenge period, media is removed and the cells are lysed with 70% MeCN and 0.1% TFA containing 100 μM of ethymalonyl-CoA as an internal standard and harvested. Cell lysates are processed for HTMS/MS analysis.

[6] = read-out: concentration of 12C-Compound-CoA ester EC50
[7] = read-out: concentration of 13C-propionyl-CoA EC50

For `CCCC(CCC)C(=O)O` [Compound 1, 2-propylpentanoic acid (valproic acid)], the “intracellular propionyl-CoA and methylmalonyl-CoA from all sources investigated” value [1] was “dose-dependent reduction”, the EC50 ([1]; 100 μM 13C-propionate, read-out: concentration of methylmalonyl-CoA EC50) was 89.4 µM and the EC50 ([1]; 100 μM 13C-propionate, read-out: concentration of propionyl-CoA EC50) was 68.2 µM. For the same compound, the EC50 ([1]; 1 mM 13C-KIVA, read-out: concentration of methylmalonyl-CoA EC50) was 31.3 µM, the EC50 ([1]; 1 mM 13C-KIVA, read-out: concentration of propionyl-CoA EC50) was 30.9 µM and the EC50 ([1]; 3 mM 13C-ILE, read-out: concentration of methylmalonyl-CoA EC50) was 25.5 µM. The EC50 ([1]; 3 mM 13C-ILE, read-out: concentration of propionyl-CoA EC50) was 30.8 µM, the EC50 ([1]; 5 mM 13C-MET, read-out: concentration of methylmalonyl-CoA EC50) was 47.3 µM and the EC50 ([1]; 5 mM 13C-MET, read-out: concentration of propionyl-CoA EC50) was 50.7 µM. The EC50 ([1]; 5 mM 13C-THR, read-out: concentration of methylmalonyl-CoA EC50) was 25.6 µM, the EC50 ([1]; 5 mM 13C-THR, read-out: concentration of propionyl-CoA EC50) was 13.9 µM and the “intracellular propionyl-CoA from all sources investigated” value [2] was “dose-dependent reduction”. The EC50 ([2]; 100 μM 13C-heptanoate) was 48.2 µM, the EC50 ([2]; 1 mM 13C-KIVA) was 14.2 µM and the EC50 ([2]; 3 mM 13C-ILE) was 15 µM. The EC50 ([2]; 5 mM 13C-MET) was 7.14 µM, the EC50 ([2]; 5 mM 13C-THR) was 9.2 µM and the EC50 ([2]; 5 mM 13C-propionate) was 21.2 µM. The EC50 [3, 6] was 12.5 µM, the EC50 [3, 7] was 12.4 µM and the “intracellular propionyl-carnitine (C3) from 13C-KIVA or 13C-isoleucine” value [4] was “dose-dependent reduction”. It also gave an EC50 ([4]; 1 mM 13C-KIVA) of 44.3 µM and an EC50 ([4]; 3 mM 13C-ILE) of 54.3 µM.

`CCCC(CC)C(=O)O` (centres unmarked) [Compound 2, 2-ethylpentanoic acid] was tested, and the EC50 [3, 6] was 1.24 µM and the EC50 [3, 7] was 1.23 µM.

`CCCC(C)C(=O)O` (centres unmarked) [Compound 3, 2-methylpentanoic acid] showed an EC50 [3, 6] of 27.4 µM and an EC50 [3, 7] of 13 µM.

`CCC(CC)C(=O)O` [Compound 4, 2-ethylbutanoic acid] showed an EC50 [3, 6] of 10.3 µM and an EC50 [3, 7] of 32.4 µM.

Compound `CC(C)(C)CC(=O)O` [Compound 6, 3,3-dimethylbutanoic acid] has an EC50 [3, 6] of 0.48 µM and an EC50 [3, 7] of 0.91 µM.

`CC1(CC(=O)O)CC1` [Compound 7, 2-(1-methylcyclopropyl) acetic acid] was tested, and the EC50 [3, 6] was 10.2 µM and the EC50 [3, 7] was 28.8 µM.

With `CC(C)(C)C(=O)O` [Compound 8, 2,2,dimethylpropionic acid] the “intracellular propionyl-CoA” value [5] was “dose-dependent reduction”.

`CCCC(C)(C)C(=O)O` [Compound 9, 2,2-dimethylpentanoic acid] was tested, and the “intracellular propionyl-CoA” value [5] was “dose-dependent reduction”.
